Like-named read-outs stand apart in the source and are kept apart here.
Assays:
[1] = Stability of working solutions; assay type: physicochemical
Description: Stability of the analyte was assessed using five measurements of QC samples at low and high concentrations after exposure to different conditions of storage and processing temperature. Baracitinib stability was evaluated after three freeze-thaw cycles, storage at room temperature (23–25 °C) for 6 h (short term stability), and subsequent storage for eight weeks at −80 °C (long term stability). […]

CYP3A4 enzyme = tested on: CYP3A4 enzyme; design: method as in PMID 30907116; details: cited from earlier work
P-glycoprotein (Pgp) = tested on: P-glycoprotein (Pgp); design: method as in PMID 30907116; details: cited from earlier work
[2] = tested on: multidrug and toxic extrusion protein (MATE) 2-K; design: method as in PMID 30907116; details: cited from earlier work
[3] = Pharmacokinetic study in rats after oral administration of baricitinib suspension; assay type: in vivo, Sprague Dawely rats
Description: Sample analysis was performed on an Acquity TQD UPLC-MS/MS system (Waters Co., Milford, MA, USA). The triple quadrupole mass spectrometer was operated in the MRM mode, and detection was carried out using electrospray ionization (ESI) in the positive ion mode. In addition, the mass spectrometry parameters including parent to daughter ion transition, collision energy, cone voltage, and dwell time were optimized to determine the analyte and IS (Table 5). The collision gas (argon) flow rate was kept at 0.1 mL/min and the desolvation gas (nitrogen) flow rate was optimized to 600 L/h. […] The flow rate was 0.2 mL/min.
Baricitinib and IS were extracted from rat plasma using liquid–liquid extraction. 20 µL of irbesartan working solution (20 µg/mL) was added to 100 µL plasma samples. After vortex-mixing for 20 s, 1 mL of n-hexane:dichlromethane mixture (1:1) was added. Samples were then mixed for 1 min and centrifuged for 5 min at 5600× g. The supernatant (0.8 mL) was transferred to a 5-mL tube and evaporated to dryness at 40 °C. Residues were reconstituted in 100 µL of the mobile phase and 5 µL was injected into the LC-MS/MS system.
Sprague Dawely rats weighing 200–230 g were obtained from the animal house at the National Organization for Drug Control and Research, Giza, Egypt. Rats were fed standard sufficient food and water and experiments were performed under the Guide for Care and Use of laboratory animals. experimental protocols were approved by the ethics committee of the Faculty of Pharmacy at Al-Azhar University, Cairo, Egypt (no. 206).
Baricitinib was used to create a suspension using 1% carboxymethyl cellulose. Following overnight fasting, the drug was administered in a dose of 2 mg/10 mL/kg. Blood samples (approximately 0.25 mL) were then collected from the retro-orbital plexus into heparinized tubes at 0.0, 0.25, 0.5, 0.75, 1.0, 1.25, 2.0, 3.0, 5.0, 7.0, 9.0, and 11.0 h post-dosing. Plasma samples were obtained by centrifuging the blood at 4250× g for 5 min and stored frozen at −80 °C until analysis. The pharmacokinetic parameters Cmax, tmax, AUC, t½, and Kel were calculated using WinNonlin software.

[4] = tested on: breast cancer resistance protein (BCRP); design: method as in PMID 30907116; details: cited from earlier work
[5] = cited from earlier work
[6] = Stability of quality control samples in rat plasma; assay type: in vitro ADME; details: n = 6
Description: […] Baracitinib stability was evaluated after three freeze-thaw cycles, storage at room temperature (23–25 °C) for 6 h (short term stability), and subsequent storage for eight weeks at −80 °C (long term stability). Moreover, the stability of stock and working solutions of baricitinib and the IS at room temperature for 6 h (23–25 °C) and at refrigerator (2–8 °C) for 12 days was tested.

[7] = design: method as in PMID 24965573; details: cited from earlier work
[8] = cited from earlier work; remark: listed apart in the source
[9] = design: method as in earlier work; details: pre-clinical animal studies, at higher dosages; cited from earlier work
[10] = tested on: organic anionic transporter (OAT) 3; design: method as in PMID 30907116; details: cited from earlier work
[11] = refrigerated temperature (2–8 °C) for 10 days
[12] = room temperature (23–25 °C) for 6 h
[13] = Sprague-Dawley, rat, plasma, male rats, oral 2 mg/kg suspension, fasted, mean ± SD
[14] = rats, literature value higher than present work
[15] = co-administration of high-fat meal
[16] = with rifampicin (potent CYP3A inducer)
[17] = Auto-sampler, nominal 40.0 ng/mL
[18] = Auto-sampler, nominal 400.0 ng/mL
[19] = Bench top (6 h), nominal 400.0 ng/mL
[20] = Long term (at −80 °C for 8 weeks), nominal 40.0 ng/mL
[21] = Long term (at −80 °C for 8 weeks), nominal 400.0 ng/mL
[22] = Thaw/freeze (3 cycles), nominal 40.0 ng/mL
[23] = Thaw/freeze (3 cycles), nominal 400.0 ng/mL

Compound: CCCCC1=NC2(CCCC2)C(=O)N1Cc1ccc(-c2ccccc2-c2nnn[nH]2)cc1 [IS, irbesartan]
- Stability of working solution [1, 11]: stable
- Stability of working solution [1, 12]: stable

Compound: CCS(=O)(=O)N1CC(CC#N)(n2cc(-c3ncnc4[nH]ccc34)cn2)C1 [baricitinib, Baricitinib]
- Metabolism by CYP3A4 (CYP3A4 enzyme): primarily metabolized
- Stability of working solution [1, 11]: stable
- Stability of working solution [1, 12]: stable
- Substrate of P-glycoprotein (Pgp) (P-glycoprotein (Pgp)): substrate
- Substrate of MATE2-K [2]: substrate
- AUC(0-inf) [3, 13]: 223 ± 107 ng·h/mL
- Cmax [3, 13]: 129 ± 91.4 ng/mL
- MRT [3, 13]: 3.3 ± 0.78 h
- half-life [3, 13]: 2.24 ± 0.43 h
- AUC(0-t) ([3]; Sprague-Dawley, rat, plasma, male rats, oral 2 mg/kg suspension, fasted, mean ± SD, read-out: AUC0-11): 205 ± 101 ng·h/mL
- Tmax ([3]; Sprague-Dawley, rat, plasma, male rats, oral 2 mg/kg suspension, fasted, median): 0.5 h
- Difference in AUC, value reported by Veeraraghavan et al. versus present work [3, 14]: 4.3 fold
- Difference in Cmax, value reported by Veeraraghavan et al. versus present work [3, 14]: 5 fold
- Substrate of BCRP [4]: substrate
- Delay in tmax [5, 15]: 3 h
- Effect on AUC [5, 15]: no effect
- Reduction of Cmax [5, 15]: about 29%
- Change of clearance ([5]; with an inhibitor of the transporter OAT3): reduced
- Effect on baricitinib pharmacokinetics ([5]; with fluconazole (CYP2C19/CYP2C9/CYP3A inhibitor)): did not significantly affect
- Effect on baricitinib pharmacokinetics ([5]; with ketoconazole (CYP3A inhibitor)): did not significantly affect
- Change of Cmax (rate of absorption) ([5]; with probenecid): not significantly increased
- Potentiation of AUC0-inf ([5]; with probenecid): twofold
- Renal clearance decreased to ([5]; with probenecid): 69%
- Change of AUC [5, 16]: decreased
- Change of Cmax [5, 16]: without affecting
- Stability, Accuracy (%) [6, 17]: 89.0%
- Stability, measured conc. Mean ± SD [6, 17]: 35.6 ± 2.69 ng/mL
- Stability, Accuracy (%) [6, 18]: 90.1%
- Stability, measured conc. Mean ± SD [6, 18]: 360.36 ± 11.52 ng/mL
- Stability, measured conc. Mean ± SD ([6]; Bench top (6 h), nominal 40.0 ng/mL): 34.61 ± 3.03 ng/mL
- Stability, Accuracy (%) [6, 19]: 85.8%
- Stability, measured conc. Mean ± SD [6, 19]: 343.27 ± 44.76 ng/mL
- Stability, Accuracy (%) [6, 20]: 86.6%
- Stability, measured conc. Mean ± SD [6, 20]: 34.63 ± 4.63 ng/mL
- Stability, Accuracy (%) [6, 21]: 87.64%
- Stability, measured conc. Mean ± SD [6, 21]: 350.56 ± 28.53 ng/mL
- Stability, Accuracy (%) [6, 22]: 85.1%
- Stability, measured conc. Mean ± SD [6, 22]: 34.09 ± 3.99 ng/mL
- Stability, Accuracy (%) [6, 23]: 86.4%
- Stability, measured conc. Mean ± SD [6, 23]: 345.73 ± 39.84 ng/mL
- Time to peak plasma concentrations ([7]; after oral administration): approximately 1 h
- Oral bioavailability [7]: 79%
- Bound to plasma proteins ([7]; mainly albumin): about 50%
- LDL-C and HDL-C levels [8]: stable dose-response increase
- Infection risk ([8]; particularly for herpes zoster): elevates infection risk
- Safety and tolerability ([8]; patients with moderate to severe RA treated for 24 weeks): safe and well tolerated
- Embryotoxicity and teratogenicity [9]: embryotoxicity, teratogenicity, and adverse effect on bone development in utero
- Substrate of OAT3 [10]: substrate

From article PMC7180984, “A Hydrophilic Interaction Liquid Chromatography–Tandem Mass Spectrometry Quantitative Method for Determination of Baricitinib in Plasma, and Its Application in a Pharmacokinetic Study in Rats” (Molecules, 2020)
